Test results: patent publication US20250340575A1, “4-AMINOPYRROLO[2,1-F][1,2,4]TRIAZINES AND PREPARATION AND USES THEREOF” (Biosplice Therapeutics, Inc., priority 2024, published 2025)

Biological target: recombinant DYRK1A kinase (Homo sapiens, UniProt Q13627)
Experiment: DYRK1A kinase assay (Ser/Thr 18 peptide Z-lyte FRET)
Type: biochemical
Settings: DYRK1A 0.25 μg/mL, ATP 15 μM, Ser/Thr peptide 18 4 μM, one hour at room temperature, 11-point dose-response from 10 μM
Protocol: Representative compounds were screened using the assay procedure for DYRK1A kinase activity as described below.
Each compound was dissolved in DMSO as a 10 mM stock and used to prepare compound source plates. Serial dilution (1:3, 11-point dose-response curves from 10 μM to 0.00016 μM) and compound transfer was performed using the ECHO 550 (Labcyte, Sunnyvale, CA) into 1536-well black-walled round bottom plates (Corning).
The DYRK1A kinase assay was run using the Ser/Thr 18 peptide Z-lyte assay kit according to manufacturer's instructions (Life Technologies—a Division of Thermo-Fisher). This is a non-radioactive assay using fluorescence resonance energy transfer (FRET) between coumarin and fluorescein to detect kinase activity which is represented as a ratio of coumarin emission/fluorescein emission.
Briefly, recombinant DYRK1A kinase, ATP and Ser/Thr peptide 18 were prepared in 1× Kinase buffer to final concentrations of 0.25 μg/mL, 15 μM, and 4 μM respectively. The mixture was allowed to incubate with the representative compounds for one hour at room temperature. All reactions were performed in duplicate. Unphosphorylated (“0% Control”) and phosphorylated (“100% control”) forms of Ser/Thr 18 served as control reactions. Additionally, an 11-point dose-response curve of Staurosporine (1 uM top) was run to serve as a positive compound control.
After incubation, Development Reagent A was diluted in Development Buffer then added to the reaction and allowed to further incubate for one hour at room temperature. The plate was read at Ex 400 Em 455 to detect the coumarin signal and Ex 400 Em 520 to measure the signal (EnVision Multilabel Plate Reader, PerkinElmer).
The Emission ratio (Em) was calculated as a ratio of the coumarin (C) emission signal (at 445 nm)/Fluorescein (F) emission signal (at 520 nm). The percent phosphorylation was then calculated using the following formula: [1−((Em ratio×F100%)−C100%)/((C0%−C100%)+(Em ratio×(F100%−F0%)))]. Dose-response curves were generated, and inhibitory concentration (IC50) values were calculated using non-linear regression curve fit in the Dotmatics' Studies Software (Bishops Stortford, UK).

Row | SMILES | IC50
1 | Nc1nc(N[C@H]2CCN(C3COC3)C[C@H]2F)nn2cc(F)c(-c3ccc4nccn4n3)c12 [Compound 39, 6-Fluoro-N2-((3R,4S)-3-fluoro-1-(oxetan-3-yl)piperidin-4-yl)-5-(imidazo[1,2-b]pyridazin-6-yl)pyrrolo[2,1-f][1,2,4]triazine-2,4-diamine] | 3.1 nM
2 | CN1CC[C@@H](Nc2nc(N)c3c(-c4ccc5nccn5n4)c(F)cn3n2)C(F)(F)C1 [Compound 40, (R)—N2-(3,3-Difluoro-1-methylpiperidin-4-yl)-6-fluoro-5-(imidazo[1,2-b]pyridazin-6-yl)pyrrolo[2,1-f][1,2,4]triazine-2,4-diamine] | 2.7 nM
3 | CC(=O)N1CC[C@@H](Nc2nc(N)c3c(-c4ccc5nccn5n4)c(F)cn3n2)C(F)(F)C1 [Compound 41, (R)-1-(4-((4-Amino-6-fluoro-5-(imidazo[1,2-b]pyridazin-6-yl)pyrrolo[2,1-f][1,2,4]triazin-2-yl)amino)-3,3-difluoropiperidin-1-yl)ethan-1-one] | 2 nM
4 | CNc1nc(N[C@@H]2CCN(S(C)(=O)=O)CC2(F)F)nn2ccc(-c3ccc4nccn4n3)c12 [Compound 48, (R)—N2-(3,3-Difluoro-1-(methylsulfonyl)piperidin-4-yl)-5-(imidazo[1,2-b]pyridazin-6-yl)-N4-methylpyrrolo[2,1-f][1,2,4]triazine-2,4-diamine] | 2.2 nM
5 | CNc1nc(N[C@H]2CCN(C(C)=O)C[C@H]2F)nn2cc(F)c(-c3ccc4nccn4n3)c12 [Compound 53, 1-((3R,4S)-3-Fluoro-4-((6-fluoro-5-(imidazo[1,2-b]pyridazin-6-yl)-4-(methylamino)pyrrolo[2,1-f][1,2,4]triazin-2-yl)amino)piperidin-1-yl)ethan-1-one] | 2.5 nM
6 | CNc1nc(N[C@H]2CCN(C3COC3)C[C@H]2F)nn2cc(F)c(-c3ccc4nccn4n3)c12 [Compound 54, 6-Fluoro-N^2-((3R,4S)-3-fluoro-1-(oxetan-3-yl)piperidin-4-yl)-5-(imidazo [1,2-b]pyridazin-6-yl)-N^4-methylpyrrolo[2,1-f][1,2,4]triazine-2,4-diamine] | 2.4 nM
7 | CNc1nc(N[C@@H]2CCN(C)CC2(F)F)nn2cc(F)c(-c3ccc4nccn4n3)c12 [Compound 55, (R)—N^2-(3,3-Difluoro-1-methylpiperidin-4-yl)-6-fluoro-5-(imidazo[1,2-b]pyridazin-6-yl)-N^4-methylpyrrolo[2,1-f][1,2,4]triazine-2,4-diamine] | 4 nM
8 | CNc1nc(N[C@@H]2CCN(C3COC3)CC2(F)F)nn2cc(F)c(-c3ccc4nccn4n3)c12 [Compound 58, (R)—N^2-(3,3-Difluoro-1-(oxetan-3-yl)piperidin-4-yl)-6-fluoro-5-(imidazo[1,2-b]pyridazin-6-yl)-N^4-methylpyrrolo[2,1-f][1,2,4]triazine-2,4-diamine] | 1.9 nM
9 | Nc1nc(N[C@@H]2CCN(C3COC3)C[C@@H]2F)nn2ccc(-c3ccc4ncn(CCF)c4n3)c12 [Compound 116, N^2-((3S,4R)-3-Fluoro-1-(oxetan-3-yl)piperidin-4-yl)-5-(3-(2-fluoroethyl)-3H-imidazo[4,5-b]pyridin-5-yl)pyrrolo[2,1-f][1,2,4]triazine-2,4-diamine] | 1.6 nM
10 | Nc1nc(N[C@H]2CCN(C3COC3)C[C@H]2F)nn2ccc(-c3ccc4ncn(CCF)c4n3)c12 [Compound 117, N^2-((3R,4S)-3-Fluoro-1-(oxetan-3-yl)piperidin-4-yl)-5-(3-(2-fluoroethyl)-3H-imidazo[4,5-b]pyridin-5-yl)pyrrolo[2,1-f][1,2,4]triazine-2,4-diamine] | 0.9 nM
11 | COCCN1CC[C@H](Nc2nc(N)c3c(-c4ccc5ncn(CC(F)F)c5n4)ccn3n2)[C@H](F)C1 [Compound 121, 5-(3-(2,2-difluoroethyl)-3H-imidazo[4,5-b]pyridin-5-yl)-N^2-((3R,4S)-3-fluoro-1-(2-methoxyethyl)piperidin-4-yl)pyrrolo[2,1-f][1,2,4]triazine-2,4-diamine] | 0.8 nM
12 | Nc1nc(N[C@@H]2CCN(C3COC3)C[C@@H]2F)nn2ccc(-c3ccc4ncn(CC(F)F)c4n3)c12 [Compound 122, 5-(3-(2,2-Difluoroethyl)-3H-imidazo[4,5-b]pyridin-5-yl)-N^2-((3S,4R)-3-fluoro-1-(oxetan-3-yl)piperidin-4-yl)pyrrolo[2,1-f][1,2,4]triazine-2,4-diamine] | 1.1 nM
13 | C[C@]1(O)CC[C@H](Nc2nc(N)c3c(-c4ccc5ncn(CC(F)(F)F)c5n4)ccn3n2)CC1 [Compound 123, (1r,4r)-4-((4-Amino-5-(3-(2,2,2-trifluoroethyl)-3H-imidazo[4,5-b]pyridin-5-yl)pyrrolo[2,1-f][1,2,4]triazin-2-yl)amino)-1-methylcyclohexan-1-ol] | 1.9 nM

Second part, the compound after the results:

Row | IC50 | SMILES
14 | 3.4 nM | CC(=O)N1CC[C@H](Nc2nc(N)c3c(-c4ccc5nccn5n4)c(F)cn3n2)[C@H](F)C1 [Compound 38, 1-((3R,4S)-4-((4-Amino-6-fluoro-5-(imidazo[1,2-b]pyridazin-6-yl)pyrrolo [2,1-f][1,2,4]triazin-2-yl)amino)-3-fluoropiperidin-1-yl)ethan-1-one]
15 | 3.1 nM | Nc1nc(N[C@@H]2CCN(C3COC3)CC2(F)F)nn2cc(F)c(-c3ccc4nccn4n3)c12 [Compound 43, (R)—N2-(3,3-Difluoro-1-(oxetan-3-yl)piperidin-4-yl)-6-fluoro-5-(imidazo [1,2-b]pyridazin-6-yl)pyrrolo[2,1-f][1,2,4]triazine-2,4-diamine]
16 | 3 nM | CNc1nc(N[C@@H]2CCN(C(C)=O)CC2(F)F)nn2ccc(-c3ccc4nccn4n3)c12 [Compound 46, (R)-1-(3,3-Difluoro-4-((5-(imidazo[1,2-b]pyridazin-6-yl)-4-(methylamino)pyrrolo[2,1-f][1,2,4]triazin-2-yl)amino)piperidin-1-yl)ethan-1-one]
17 | 1.4 nM | CNc1nc(N[C@@H]2CCN(C(C)=O)CC2(F)F)nn2cc(F)c(-c3ccc4nccn4n3)c12 [Compound 56, (R)-1-(3,3-Difluoro-4-((6-fluoro-5-(imidazo[1,2-b]pyridazin-6-yl)-4-(methylamino)pyrrolo[2,1-f][1,2,4]triazin-2-yl)amino)piperidin-1-yl)ethan-1-one]
18 | 1.2 nM | C[C@]1(O)CC[C@H](Nc2nc(N)c3c(-c4ccc5ncn(CCF)c5n4)ccn3n2)CC1 [Compound 112, (1r,4r)-4-((4-Amino-5-(3-(2-fluoroethyl)-3H-imidazo[4,5-b]pyridin-5-yl)pyrrolo[2,1-f][1,2,4]triazin-2-yl)amino)-1-methylcyclohexan-1-ol]
19 | 0.8 nM | CN1CC[C@H](Nc2nc(N)c3c(-c4ccc5ncn(CCF)c5n4)ccn3n2)[C@H](F)C1 [Compound 113, N^2-((3R,4S)-3-Fluoro-1-methylpiperidin-4-yl)-5-(3-(2-fluoroethyl)-3H-imidazo[4,5-b]pyridin-5-yl)pyrrolo[2,1-f][1,2,4]triazine-2,4-diamine]
20 | 1.6 nM | COCCN1CC[C@H](Nc2nc(N)c3c(-c4ccc5ncn(CCF)c5n4)ccn3n2)[C@H](F)C1 [Compound 114, N^2-((3R,4S)-3-Fluoro-1-(2-methoxyethyl)piperidin-4-yl)-5-(3-(2-fluoroethyl)-3H-imidazo[4,5-b]pyridin-5-yl)pyrrolo[2,1-f][1,2,4]triazine-2,4-diamine]
21 | 1 nM | CC(=O)N1CC[C@H](Nc2nc(N)c3c(-c4ccc5ncn(CCF)c5n4)ccn3n2)[C@H](F)C1 [Compound 115, 1-((3R,4S)-4-((4-Amino-5-(3-(2-fluoroethyl)-3H-imidazo[4,5-b]pyridin-5-yl)pyrrolo[2,1-f][1,2,4]triazin-2-yl)amino)-3-fluoropiperidin-1-yl)ethan-1-one]
22 | 0.5 nM | CC(=O)N1CC[C@@H](Nc2nc(N)c3c(-c4ccc5ncn(CCF)c5n4)ccn3n2)C(F)(F)C1 [Compound 118, (R)-1-(4-((4-Amino-5-(3-(2-fluoroethyl)-3H-imidazo[4,5-b]pyridin-5-yl)pyrrolo[2,1-f][1,2,4]triazin-2-yl)amino)-3,3-difluoropiperidin-1-yl)ethan-1-one]
23 | 1.4 nM | Nc1nc(N[C@@H]2CCN(C3COC3)CC2(F)F)nn2ccc(-c3ccc4ncn(CCF)c4n3)c12 [Compound 119, (R)—N^2-(3,3-Difluoro-1-(oxetan-3-yl)piperidin-4-yl)-5-(3-(2-fluoroethyl)-3H-imidazo[4,5-b]pyridin-5-yl)pyrrolo[2,1-f][1,2,4]triazine-2,4-diamine]
24 | 0.7 nM | CN1CC[C@H](Nc2nc(N)c3c(-c4ccc5ncn(CC(F)F)c5n4)ccn3n2)[C@H](F)C1 [Compound 120, 5-(3-(2,2-Difluoroethyl)-3H-imidazo[4,5-b]pyridin-5-yl)-N^2-((3R,4S)-3-fluoro-1-methylpiperidin-4-yl)pyrrolo[2,1-f][1,2,4]triazine-2,4-diamine]
